{"source": "patent EP0330353A1", "about": "“Tetrazole excitatory amino acid receptor antagonists” (ELI LILLY AND COMPANY, priority 1988, dated 1989)", "key": {"NMDA": {"system": "NMDA", "assay": "In vivo NMDA-induced lethality in mice", "parameters": "species or system Male Charles River CF1 mice", "settings": "for minimal effective dose: Mus musculus, 20 min, read-out: MED", "experimental": "A typical receptor substance is characterized by N-methyl-D-aspartic acid (NMDA).\nMale Charles River CF1 mice held in the laboratory for a minimum of three days were housed, 12 per cage, on sawdust bedding in clear plastic boxes with wire mesh lids. Animals were allowed full access to feed and water prior to testing.\nUnless otherwise specified, all test compounds were formulated in dimethylsulfoxide (DMSO) and diluted to a 5% DMSO/sterile water solution by volume. Dosing began at 160 mg/kg. If any significant activity was detected, the test drug dose was divided in half until no more activity was detected. All test compounds were administered using the intraperitoneal injection (i.p.) route at a volume of 0.01 cc/gm.\nFive mice were taken from the plastic cages, dosed with the test compound and placed individually in clear plastic observation cages. After a 30 minute drug absorption period, the mice were injected intra-peritoneally with 200 mg/kg of NMDA. This dose of NMDA produces death in more than 95% of control-treated animals. Twenty minutes after the NMDA injection the animals were scored as dead or alive. Data are reported as the minimum effective dose (MED) to block NMDA-induced lethality. Protection from lethality is met by the survival of at least three of the five animals. Data for AP5 and AP7, known excitatory amino acid antagonists, are provided for comparison."}, "NMDA receptors": {"system": "NMDA receptors", "assay": "NMDA-induced seizures in neonatal rats", "type": "in vivo, neonatal (7 to 8 days old) Sprague-Dawley rats", "settings": "lowest dose preventing NMDA-induced seizures in at least 3 of 5 neonatal rats; test drug i.p. in saline 30 min before NMDA 20 mg/kg i.p.; observed 30 min", "experimental": "In another experiment, male or female neonatal (7 to 8 days old) Sprague-Dawley rats were removed from the dam and placed in plastic observation chambers that were maintained at 30-32°C. All test drugs were dissolved in normal saline. Activation of NMDA receptors in these rats leads to a readily observable generalized motor seizure in over 95% of the animals.\nAnimals were injected by the intraperitoneal route with the test drug (1 ml/100 g of body weight) and observed for a 30 minute period for seizure (potential agonist) activity. They were then injected with NMDA at a dose of 20 mg/kg body weight i.p. to test for antagonist activity. […] Generally, five animals were used at each dose of compound. […] The minimum effective dose was the lowest test dose which prevented NMDA-induced seizures in at least three out of five animals."}, "[1]": {"settings": "minimum effective dose to block NMDA-induced lethality (survival of at least 3 of 5 mice), test compound i.p. 30 min before 200 mg/kg NMDA i.p., scored 20 min after NMDA"}}, "note": "Where two headings read alike, the source gives them in different places.", "data": [{"compound": "CCCCOC(=O)[C@H]1C[C@@H](Cc2nn[nH]n2)CCN1", "note": "(racemic) [Example 5, Butyl cis-(±)-4-[(1(2)H-tetrazol-5-yl)methyl]-2-piperidinecarboxylate]", "values": [{"measurement": "minimal effective dose", "setting": "NMDA; [1]", "result": 160, "unit": "mg/kg"}]}, {"compound": "cis-(±)-4-[(1(2)-Methyl-1(2)H-tetrazol-5-yl)methyl]-2-piperidinecarboxylic acid [Example 7]", "values": [{"measurement": "MED", "setting": "NMDA; [1]", "result": 160, "unit": "mg/kg"}]}, {"compound": "O=C(O)C1C/C(=C\\c2nn[nH]n2)CCN1", "note": "(racemic) [Example 4, Z-(±)-4-[(1(2)H-Tetrazol-5-yl)methylidene]-2-piperidinecarboxylic acid]", "values": [{"measurement": "minimal effective dose", "setting": "NMDA; [1]", "result": 20, "unit": "mg/kg"}]}, {"compound": "O=C(O)[C@H]1C[C@@H](CCc2nn[nH]n2)CCN1", "note": "(racemic) [Example 1, cis-(±)-4-[2-(1(2)H-Tetrazol-5-yl)ethyl]-2-piperidinecarboxylic acid]", "values": [{"measurement": "minimal effective dose", "setting": "NMDA; [1]", "result": 20, "unit": "mg/kg"}]}, {"compound": "O=C(O)[C@H]1C[C@@H](CCCc2nn[nH]n2)CCN1", "note": "(racemic) [Example 2, cis-(±)-4-[3-(1(2)H-Tetrazol-5-yl)propyl]-2-piperidinecarboxylic acid]", "values": [{"measurement": "minimal effective dose", "setting": "NMDA; [1]", "result": 10, "unit": "mg/kg"}]}, {"compound": "NC(CCCCCP(=O)(O)O)C(=O)O", "note": "(stereo not drawn) [AP7, reference compound]", "values": [{"measurement": "minimal effective dose", "setting": "NMDA", "result": 160, "unit": "mg/kg"}]}, {"compound": "CCOC(=O)C1CC(Cc2nn[nH]n2)CCN1", "note": "(racemic) [Example 6, Ethyl cis-(±)-4-[(1(2)H-tetrazol-5-yl)methyl]-2-piperidinecarboxylate]", "values": [{"measurement": "MED", "setting": "NMDA receptors", "result": 200, "unit": "mg/kg"}]}, {"compound": "O=C(O)[C@H]1C[C@@H](Cc2nn[nH]n2)CCN1", "note": "(racemic) [Example 3, cis-(±)-4-[(1(2)H-Tetrazol-5-yl)methyl]-2-piperidinecarboxylic acid]", "values": [{"measurement": "minimal effective dose", "setting": "NMDA; [1]", "result": 10, "unit": "mg/kg"}]}, {"compound": "NC(CCCP(=O)(O)O)C(=O)O", "note": "(stereo not drawn) [AP5, reference compound]", "values": [{"measurement": "minimal effective dose", "setting": "NMDA; [1]", "result": 80, "unit": "mg/kg"}]}]}
